Laboratory results reported in patent US6643591B1, “Use of computational and experimental data to model organic compound reactivity in cytochrome P450 mediated reactions and to optimize the design of pharmaceuticals” (University of Pittsburgh, priority 1998, dated 2003).
Where “and” joins values, the source holds several entries; their conditions need not be identical. Identical values can stand only once. Marks after values point to notes of the source that are not given here.

Assays:
CYP2C8 [1] = biological target: T1, CYP2C8 (Homo sapiens, UniProt P10632); assay: Regioselectivity and inter-/intramolecular KIE for 4-methylanisole (Table 15); assay type: in vitro ADME
T1 sequence (P10632 1-490): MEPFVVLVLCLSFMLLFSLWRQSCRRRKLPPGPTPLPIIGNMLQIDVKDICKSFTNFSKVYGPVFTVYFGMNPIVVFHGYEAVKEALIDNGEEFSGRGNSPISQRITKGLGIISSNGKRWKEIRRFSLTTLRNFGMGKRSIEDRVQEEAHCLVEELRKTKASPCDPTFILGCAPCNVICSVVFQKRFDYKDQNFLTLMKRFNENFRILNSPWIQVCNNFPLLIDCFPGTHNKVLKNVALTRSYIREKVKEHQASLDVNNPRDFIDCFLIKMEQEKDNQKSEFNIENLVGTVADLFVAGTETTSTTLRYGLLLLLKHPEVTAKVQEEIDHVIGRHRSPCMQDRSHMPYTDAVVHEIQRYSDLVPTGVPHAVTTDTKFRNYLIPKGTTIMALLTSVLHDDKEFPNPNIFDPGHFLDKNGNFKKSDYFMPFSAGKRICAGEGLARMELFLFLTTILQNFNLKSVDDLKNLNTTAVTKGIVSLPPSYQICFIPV

CYP4B1 = CYP4B1 (Oryctolagus cuniculus, UniProt P15128)
Chain of CYP4B1 (P15128 whole entry): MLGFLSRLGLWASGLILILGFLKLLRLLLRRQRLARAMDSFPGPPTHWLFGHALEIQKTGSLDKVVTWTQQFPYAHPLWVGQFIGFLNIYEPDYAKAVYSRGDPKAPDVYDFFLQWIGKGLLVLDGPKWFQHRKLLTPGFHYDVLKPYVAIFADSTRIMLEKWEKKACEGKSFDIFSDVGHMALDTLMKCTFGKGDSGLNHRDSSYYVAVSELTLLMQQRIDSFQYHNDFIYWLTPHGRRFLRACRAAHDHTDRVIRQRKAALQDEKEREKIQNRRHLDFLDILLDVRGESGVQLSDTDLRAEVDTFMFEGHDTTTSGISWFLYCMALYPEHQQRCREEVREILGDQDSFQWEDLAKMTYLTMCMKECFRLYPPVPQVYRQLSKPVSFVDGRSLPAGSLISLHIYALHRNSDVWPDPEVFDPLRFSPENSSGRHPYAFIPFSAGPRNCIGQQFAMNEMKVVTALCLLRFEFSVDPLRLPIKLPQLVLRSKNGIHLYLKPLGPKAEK

CYP1A1 = biological target: T2, CYP1A1 (Homo sapiens, UniProt P04798)
T2 sequence (P04798 1-512): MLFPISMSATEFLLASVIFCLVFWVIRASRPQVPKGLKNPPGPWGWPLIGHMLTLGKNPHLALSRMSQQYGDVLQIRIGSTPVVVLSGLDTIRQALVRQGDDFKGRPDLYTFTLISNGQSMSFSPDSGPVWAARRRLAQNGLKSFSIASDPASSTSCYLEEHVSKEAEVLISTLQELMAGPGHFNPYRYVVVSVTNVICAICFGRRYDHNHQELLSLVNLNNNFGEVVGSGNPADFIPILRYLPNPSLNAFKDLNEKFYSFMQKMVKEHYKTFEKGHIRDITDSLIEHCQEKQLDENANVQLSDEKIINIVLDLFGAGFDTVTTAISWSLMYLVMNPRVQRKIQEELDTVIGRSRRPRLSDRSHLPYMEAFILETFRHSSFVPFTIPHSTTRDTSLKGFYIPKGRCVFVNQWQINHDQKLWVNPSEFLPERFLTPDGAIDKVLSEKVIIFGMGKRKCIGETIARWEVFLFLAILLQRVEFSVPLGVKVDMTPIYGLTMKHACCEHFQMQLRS

CYP2C8 [2] = biological target: T1, CYP2C8; settings: pH 7.4
CYP1A2 = biological target: T3, CYP1A2 (Homo sapiens, UniProt P05177); assay: Regioselectivity and inter-/intramolecular KIE for 4-methylanisole (Table 15); assay type: in vitro ADME
T3 sequence (P05177 1-516): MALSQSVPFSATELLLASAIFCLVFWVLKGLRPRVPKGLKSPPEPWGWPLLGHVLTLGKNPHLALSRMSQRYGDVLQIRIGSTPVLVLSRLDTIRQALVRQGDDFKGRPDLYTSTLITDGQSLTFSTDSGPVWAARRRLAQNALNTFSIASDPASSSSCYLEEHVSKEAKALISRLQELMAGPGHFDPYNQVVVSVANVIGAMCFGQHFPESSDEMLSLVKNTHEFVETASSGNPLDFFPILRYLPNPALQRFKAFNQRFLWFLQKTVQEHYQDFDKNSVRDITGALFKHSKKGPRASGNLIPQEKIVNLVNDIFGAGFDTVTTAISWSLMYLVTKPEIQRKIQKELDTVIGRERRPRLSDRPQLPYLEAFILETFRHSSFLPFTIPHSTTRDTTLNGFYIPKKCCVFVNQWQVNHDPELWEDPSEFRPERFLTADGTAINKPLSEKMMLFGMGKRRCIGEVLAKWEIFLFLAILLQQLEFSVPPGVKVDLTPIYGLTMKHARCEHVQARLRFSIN

CYP2C9 [3] = biological target: T4, CYP2C9 (Homo sapiens, UniProt P11712); assay: as above; assay type: in vitro ADME
T4 sequence (P11712 whole entry): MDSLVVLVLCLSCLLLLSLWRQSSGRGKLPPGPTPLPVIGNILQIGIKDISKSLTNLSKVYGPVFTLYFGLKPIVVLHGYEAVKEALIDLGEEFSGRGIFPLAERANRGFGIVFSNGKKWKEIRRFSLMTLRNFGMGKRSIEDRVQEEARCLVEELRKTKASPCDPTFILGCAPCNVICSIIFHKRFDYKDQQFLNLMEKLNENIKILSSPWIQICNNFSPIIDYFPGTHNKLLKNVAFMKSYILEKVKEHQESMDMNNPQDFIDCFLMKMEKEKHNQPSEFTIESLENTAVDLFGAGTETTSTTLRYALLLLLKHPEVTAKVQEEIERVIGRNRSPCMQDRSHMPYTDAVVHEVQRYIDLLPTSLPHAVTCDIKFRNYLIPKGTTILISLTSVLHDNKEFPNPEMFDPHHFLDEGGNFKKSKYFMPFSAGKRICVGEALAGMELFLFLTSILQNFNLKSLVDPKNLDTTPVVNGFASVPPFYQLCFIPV

various CYP enzymes = settings: mean over seven enzymes
CYP2C9 [4] = biological target: T4, CYP2C9; assay: in vitro
CYP2B1 = biological target: T5, CYP2B1 (Rattus norvegicus, UniProt P00176); assay: in vitro
T5 sequence (P00176 1-491): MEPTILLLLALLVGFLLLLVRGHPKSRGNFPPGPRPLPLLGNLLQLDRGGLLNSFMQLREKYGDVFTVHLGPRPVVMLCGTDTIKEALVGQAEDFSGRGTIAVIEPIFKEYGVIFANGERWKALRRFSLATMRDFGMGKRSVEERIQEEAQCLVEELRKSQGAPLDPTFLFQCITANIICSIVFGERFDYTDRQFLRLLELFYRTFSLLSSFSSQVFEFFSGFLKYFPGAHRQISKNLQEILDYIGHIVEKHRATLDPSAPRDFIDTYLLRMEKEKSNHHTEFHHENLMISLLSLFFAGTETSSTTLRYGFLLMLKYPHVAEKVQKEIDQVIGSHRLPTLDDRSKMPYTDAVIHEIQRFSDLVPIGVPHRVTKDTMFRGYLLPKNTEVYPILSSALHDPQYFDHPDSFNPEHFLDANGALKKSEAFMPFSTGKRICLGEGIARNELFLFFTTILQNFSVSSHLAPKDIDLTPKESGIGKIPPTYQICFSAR

CYP2E1 = CYP2E1 (Homo sapiens, UniProt P05181); assay: in vitro
Chain of CYP2E1 (P05181 whole entry): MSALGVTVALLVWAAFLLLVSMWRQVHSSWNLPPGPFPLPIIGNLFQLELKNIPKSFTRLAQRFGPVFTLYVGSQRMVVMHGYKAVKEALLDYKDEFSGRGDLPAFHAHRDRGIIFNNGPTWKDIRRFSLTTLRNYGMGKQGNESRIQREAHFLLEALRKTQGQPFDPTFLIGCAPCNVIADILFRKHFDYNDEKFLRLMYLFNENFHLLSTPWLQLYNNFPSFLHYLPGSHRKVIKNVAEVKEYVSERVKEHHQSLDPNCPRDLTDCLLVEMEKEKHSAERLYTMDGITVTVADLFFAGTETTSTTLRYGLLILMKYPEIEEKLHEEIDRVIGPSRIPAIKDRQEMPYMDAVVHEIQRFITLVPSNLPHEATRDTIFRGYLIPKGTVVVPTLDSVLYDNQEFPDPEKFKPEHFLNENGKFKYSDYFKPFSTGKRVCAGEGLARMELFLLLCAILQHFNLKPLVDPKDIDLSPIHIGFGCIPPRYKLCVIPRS

[5] = pH 7.4, Regioselectivity BzH:Arom
[6] = pH 7.4, Regioselectivity BzH:ODAlk

COc1ccc(C)cc1 [p-Methylanisole, p-methylanisole]
Intermolecular KIE (CYP2C8 [1]; CYP2C8 (Table 15)): 3.60
Intramolecular KIE (CYP2C8 [1]; CYP2C8 (Table 15)): 3.60
δΔG^† (CYP2C8 [1]; CYP2C8, benzylic oxidation vs O-dealkylation): 1.32 kcal/mol
INTER KIE (combined intermolecular competitive KIE) (CYP4B1): 1.4 and 1.42
Intramolecular KIE (kH/kD) (CYP4B1): 6.08
nmol p-CR (CYP4B1; pH 7.4): 48* nmol
nmol p-MBA (CYP4B1; pH 7.4): 63* nmol
nmol total TP (CYP4B1; pH 7.4): 111* nmol
Intermolecular KIE (CYP1A1; CYP1A1 (Table 15)): 2.17
Intramolecular KIE (CYP1A1; CYP1A1 (Table 15)): 4.23
δΔG^† (CYP1A1; CYP1A1, benzylic oxidation vs O-dealkylation): 1.12 kcal/mol
nmol p-CR (CYP2C8 [2]): 0.20 nmol
nmol p-MBA (CYP2C8 [2]): 1.89 nmol
nmol total TP (CYP2C8 [2]): 2.08 nmol
Intermolecular KIE (CYP1A2; CYP1A2 (Table 15)): 5.94
Intramolecular KIE (CYP1A2; CYP1A2 (Table 15)): 3.79
δΔG^† (CYP1A2; CYP1A2, benzylic oxidation vs O-dealkylation): 1.82 kcal/mol
Intermolecular KIE (CYP2C9 [3]; CYP2C9 (Table 15)): 3.52
Intramolecular KIE (CYP2C9 [3]; CYP2C9 (Table 15)): 3.92
δΔG^† (CYP2C9 [3]; CYP2C9, benzylic oxidation vs O-dealkylation): 1.87 kcal/mol
Benzylic/O-Dealkylation, Mean (various CYP enzymes): 10.60 (5.85)
Intermolecular KIE, Mean (various CYP enzymes): 4.59
Intramolecular KIE, Mean (various CYP enzymes): 4.20

COc1ccccc1C [o-Methylanisole, o-methylanisole]
selectivity ratio (CYP2C9 [4]; [5]): 1.6
selectivity ratio (CYP2C9 [4]; [6]): 2.5
selectivity ratio (CYP2B1; [5]): 0.31
selectivity ratio (CYP2B1; [6]): 1.2
INTER KIE (combined intermolecular competitive KIE) (CYP4B1): 14.94
Intramolecular KIE (kH/kD) (CYP4B1): 6.90
P, calculated primary KIE (CYP4B1): 8.9
S, calculated secondary KIE (CYP4B1): 1.29
Metabolite profile, o-CR (CYP4B1; pH 7.4): 59 Mol-%
Metabolite profile, o-MBA (CYP4B1; pH 7.4): 39 Mol-%
Ratio ODAlk:Arom (CYP4B1; pH 7.4): 0.03
nmol 4M3MPh (CYP4B1; pH 7.4): 1.1* nmol
nmol TP (CYP4B1; pH 7.4): 48 nmol
nmol o-CR (CYP4B1; pH 7.4): 29* nmol
nmol o-MBA (CYP4B1; pH 7.4): 18.7* nmol
selectivity ratio (CYP2E1; [5]): 0.48
selectivity ratio (CYP2E1; [6]): 1.6
Metabolite profile, Phenol (CYP2C8 [2]): 33 Mol-%
Metabolite profile, o-CR (CYP2C8 [2]): 36 Mol-%
Metabolite profile, o-MBA (CYP2C8 [2]): 31 Mol-%
nmol 4M3MPh (CYP2C8 [2]): 0.2 nmol
nmol TP (CYP2C8 [2]): 0.6 nmol
nmol o-CR (CYP2C8 [2]): 0.2 nmol
nmol o-MBA (CYP2C8 [2]): 0.21 nmol
